In patent US9650674B2, “Nucleic acid probes and methods of using the same” (Board of Trustees University of Arkansas, priority 2012, dated 2017):
{Cy5.5} = Cy5.5 near-infrared fluorophore label at the ends

Assays:
[1] = Heat denaturing and reannealing of hairpin probes (probe integrity); type: physicochemical; details: ROX internal reference; above background; FIG. 1C
Procedure: To ensure the integrity of the DNA probes, it was tested whether a heat denaturing of the hairpins would cause an increase in fluorescence, and if a reannealing would reverse it. To compensate for thermal change of fluorophore's emission, the ROX fluorophore was added to tested probes as an internal reference.
(§1) All cell-free experiments were performed using the Bio-Tek Synergy 5 fluorescent plate reader. Before experiments, optimal excitation and emission wavelengths were determined. For this, excitation and emission were scanned in the ranges of 600-680 nm and 690-705 nm, respectively. The optimal excitation/emission was determined to be 665/703 nm. All kinetic and endpoint measurements were done in a total volume of 100 μl at 37° C. Unless stated otherwise, DNA substrate was used in final concentration 0.5 μM reconstituted in endonuclease activity assay (EAA) buffer (2 mM CaCl2, 5 mM MgCl2, 10 mM Tris-HCl, pH 7.4) in a 96-well plate. After measurement of starting fluorescence, DNase I or tested material (diluted 1:20 urine or 1:100 serum) were added to the reconstituted probe, rapidly mixed and fluorescence was monitored for up to 60 min with 30-sec intervals. In some instances, EDTA (final concentration 200 μM) or NaOH (50 mM) was added to terminate the reaction. For the experiments that involved assessment of fluorescence after DNA denaturing, probes were tested in Cepheid real-time PCR system using Cy5 setting (Sunnyvale, Calif.).

[2] = Alkaline denaturing of probes, kinetic fluorescence; type: physicochemical; details: alkaline buffer
Procedure: Lastly, the probes' integrity was tested by alkaline denaturing. The probes were treated with alkaline buffer and kinetic detection of the fluorescence was performed. […] AB259.1, AB259.3 and AB259.5 gained 40%, 81%, and 85% of fluorescence, respectively.
as §1

[3] = Baseline fluorescence of hairpin DNA probes; type: physicochemical; details: FIG. 1B
From the text: It was impossible to determine if the background fluorescence was attributed to the probe or it originated from a partial degradation of the probe. Consequently, the NIRF probes were designed as hairpins to allow testing the integrity of DNA by its denaturing followed by reannealing. The use of hairpin also allows easy measurement of the maximum fluorescence of the probe. The distance between two fluorophores varied by changing of protruding DNA strand length from +0 (AB259.1 probe) to +5 (AB259.3 probe) or to +10 (AB259.5 probe) as shown in FIG. 1A. The baseline fluorescence of probe AB259.1 was 30% higher than negative control without a probe (FIG. 1B).
as §1

DNase I [4] = target: T1, DNase I (Homo sapiens, UniProt P24855); test: Kinetic fluorescence of probes exposed to DNase I in vitro; type: biochemical; details: probe 0.5 μM, DNase I 1 μg/ml; for gain of fluorescence compared to baseline: twenty min into the reaction, FIG. 2B
T1 construct: purchased Sigma (St. Louis, Mo.)
T1 sequence (P24855 23-282): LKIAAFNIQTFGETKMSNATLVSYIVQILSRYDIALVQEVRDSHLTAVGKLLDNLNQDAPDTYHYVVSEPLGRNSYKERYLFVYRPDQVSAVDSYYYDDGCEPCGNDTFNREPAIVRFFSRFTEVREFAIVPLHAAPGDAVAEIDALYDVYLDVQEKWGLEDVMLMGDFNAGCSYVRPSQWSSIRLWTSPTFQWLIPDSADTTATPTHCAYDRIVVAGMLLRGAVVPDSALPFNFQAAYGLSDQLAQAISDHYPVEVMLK
Procedure: It was hypothesized that exposure of the probes to endonucleases would lead to DNA cleavage and dissociation of protruded strand from the hairpin (FIG. 2A). To assess which of the proposed probes is the best to measure endonuclease activity, the probes (0.5 μM) were exposed with recombinant human DNase I (1 μg/ml) and the kinetic fluorescence curves were recorded. Twenty min into the reaction, AB259.1, AB259.3 and AB259.5 gained 1.75-, 2.6- and 1.62-fold fluorescence, respectively, compared to the baseline (FIG. 2B). At 20-25 min, AB259.1 and AB259.3 reached the plateaus. […] Therefore, AB259.3 was chosen for further experiments.
(§2) To detect specificity of the assay to DNase I that is a Ca/Mg-dependent endonuclease, AB259.3 probe was tested with 1 μg/ml DNase I in the presence of Ca++ and Mg++ (EAA buffer), in absence of the cations (deionized water), or in excess of EDTA (200 μM). […] Finally, it was tested whether AB259.3 probe will detect inhibition of DNase I activity by DNase I inhibitors such as ZnCl2 and Zn-diisopropyl salicylate (Zn-DIPS).
as §1

NRK-52E cells = test: Intracellular endonuclease activity in cultured cells, time-lapse microscopy; type: cell-based, rat; details: 25 μM cisplatin or 50 μM camptothecin for 8 hours; FIGS. 4B and 4C
Procedure: To test whether AB259.3 probe may be delivered intracellularly and thus be used as an indicator of endonuclease activity in live cells, NRK-52E cells were transfected with of AB259.3/Lipofectamine LTX complexes and imaged by time-lapse epifluorescence microscopy every 10 min for 8 hours. A 2.5-3 times increased fluorescence reached plateau in 1 hour after transfection and the cells retained fluorescent dye for the duration of experiment (FIG. 4A). To induce activity of endonucleases, cells were treated with cisplatin or camptothecin and imaged by time-lapse microscopy for Cy5.5 fluorescence. […] Therefore, it was concluded that AB259.3 can be delivered and used for intracellular monitoring of endonuclease activity in live cells. To further determine whether AB259.3 probe can be used in other cell lines, several of them were tested (FIG. 4D). […] It was then determined whether the probe without the loop would be consumed by NRK-52E cells equally to the original loop probe. […] Finally, PCR was used to determine whether the DNA part (as opposed to the fluorophores) of the probes enters the cells in vivo and in vitro.
Rat proximal tubular epithelial NRK-52E cells were used to test the ability of AB259.3 probe to measure endonuclease activity. The cells were seeded in a 24-well plate at 50,000 cells per well in complete DMEM medium supplemented with 10% fetal bovine serum. Cells were transfected with the AB259.3 probe using Lipofectamin LTX and then subjected to spinning disk confocal fluorescent time-lapse microscopy in 628/40-692/40 spectrum every 10 min for 8 hours using Olympus IX-81 image system equipped with Hamamatsu ORCA-ER camera and LiveCell microenvironmental control chamber (Pathology Devices Inc., Westminster, Md.). In separate experiment, cells were treated with either 25 μM cisplatin or 50 μM camptothecin for 8 hours, followed by 1-hour transfection with AB259.3 probe and 8-hour time-lapse imaging session with 10-min intervals using the same microscopy system.

DNase I [5] = target: T1, DNase I; test: DNase I endonuclease activity measured with AB259.3 probe in presence of inhibitors; type: biochemical; details: 1 μg/ml DNase I; EDTA 200 μM; FIG. 2D
Procedure: as §2, §1

[6] = system: wild-type (WT) mouse kidney cryosections; test: Endonuclease activity ex vivo in kidney cryosections; details: FIG. 5C
Procedure: Next it was examined whether AB259.3 probe can be used for measurement of endonuclease activity in tissue sections. Kidneys were used because they are known for high activity of DNase I (Ca/Mg-dependent endonuclease). Freshly prepared 10 μm thick cryosections of wild-type (WT) mouse kidney were exposed with 5 μM AB259.3 probe in presence of EAA buffer at 37° C. and time-lapse imaged for 10 min with 1-min intervals.
Specimens of kidney, liver, spleen and testis tissues were removed from euthanized mice, immersed in OCT medium, rapidly frozen by Fisher Freeze-it and kept on dry ice for no longer than 1 hour prior slicing. Tissue cryosections (8-μm thick) were prepared using the Microm HM 505E cryotome, placed to the Fisher Plus slides and immediately exposed with 0.5 μM AB259.3 probe diluted in EAA buffer. In control samples, applied probe contained EAA buffer supplemented with 200 μM EDTA. Images were taken in 628/40-692/40 spectrum every 30 sec for 10 min in 10 random XY coordinates. Three sections from each specimen were analyzed separately. Maximal velocity of increasing fluorescence was averaged for each section.

WT and DNase I KO mice = test: Intravital imaging of endonuclease activity in kidneys; details: 5 μl DNase I (0.1 mg/ml) subcapsular, left kidney, then AB259.3 50 nmol/kg i.v.; FIGS. 7F and 7G
From the text: At the next step, WT and DNase I KO mice were anesthetized and intravenously administered with 50 nmol/kg of AB259.3 probe followed by intravital imaging using Xenogen-IVIS.
To additionally confirm preferential accumulation and processing of AB259.3 probe in kidneys, separate set of mice was deeply anesthetized and subjected to abdominal incision and real-time intravital visualization of left kidney while performing intravenous injection of AB259.3 probe. […] For this, DNase I KO animals were subjected to open surgery that was used to administer 5 μl DNase I (0.1 mg/ml) to subcapsular space of upper ventral zone of left kidney. To control effect of DNase I, additional WT and DNase I KO mice were injected with same volume of the vehicle. Immediately after injection, mice were injected with 50 nmol/kg of AB259.3 probe intravenously and then imaged in a Xenogen-IVIS.
Male DNase I KO mice and their WT counterparts at the age 8-10 weeks were used for all experiments. All procedures with mice were performed under general anesthesia with 50 mg/kg ketamine. For subcutaneous administration, mice were injected with 10 μl of 0.1 μM AB259.3 in the dorsal subcutaneous site. For systemic visualization, AB259.3 was injected intravenously at 50 nmol/kg in tail vein.
Imaging of live and euthanized mice or their isolated organs were performed using Xenogen IVIS Image System 200 (Caliper Life Sciences, Hopkinton, Mass.) equipped with Living Image® Software.

[Cy5.5]AACACTCCGATGAGTGTAGAATGTACGAGT[Cy5.5] (DNA, 5' {Cy5.5}, 3' {Cy5.5}, backbone not given here; hairpin DNA probe) [AB259.5, hairpin DNA probe with Cy5.5 at both ends, protruding strand +10]
gain of fluorescence on heat denaturing [1]: 1.8 times
gain of fluorescence on alkaline denaturing [2]: 85%
baseline fluorescence (in words) ([3]; correlated with length of protruded DNA end): much higher levels of the baseline fluorescence
behaviour of fluorescence at 20-25 min (in words) (DNase I [4]): became variable and did not yield reliable gain of fluorescence thereafter
gain of fluorescence compared to baseline (DNase I [4]): 1.62 fold

CC[C@@]1(O)C(=O)OCc2c1cc1n(c2=O)Cc2cc3ccccc3nc2-1 [camptothecin, reference compound]
induction of endonuclease activity (Cy5.5 fluorescence of AB259.3 in treated cells) (NRK-52E cells): significant increase of fluorescence

N.N.[Cl][Pt][Cl] [cisplatin, reference compound]
induction of endonuclease activity (Cy5.5 fluorescence of AB259.3 in treated cells) (NRK-52E cells): significant increase of fluorescence

[Cl-].[Cl-].[Zn+2] [ZnCl2, zinc chloride]
effect on DNase I activity detected by AB259.3 fluorescence (DNase I [5]): suppressed

CC(C)c1cc(C(=O)O)c([O-])c(C(C)C)c1.CC(C)c1cc(C(=O)O)c([O-])c(C(C)C)c1.[Zn+2] [Zn-DIPS, zinc-diisopropyl salicylate]
effect on DNase I activity detected by AB259.3 fluorescence (DNase I [5]): suppressed

O=C(O)CN(CCN(CC(=O)O)CC(=O)O)CC(=O)O [EDTA, reference compound]
effect on DNase I activity detected by AB259.3 fluorescence (DNase I [5]): inhibited
effect of EDTA on fluorescence increase in cryosections [6]: the increase of fluorescence was prevented

[Cy5.5]AACACTCCGATGAGTGTA[Cy5.5] (DNA, 5' {Cy5.5}, 3' {Cy5.5}, backbone not given here; hairpin DNA probe) [AB259.1, hairpin DNA probe with Cy5.5 at both ends, protruding strand +0]
gain of fluorescence on heat denaturing [1]: 2.7 times
gain of fluorescence on alkaline denaturing [2]: 40%
baseline fluorescence higher than negative control without a probe [3]: 30%
gain of fluorescence compared to baseline (DNase I [4]): 1.75 fold

B1: DNase I: recombinant DNase I delivered to the kidneys of DNase I KO mice (protein, UniProt P24855 23-282, looked up)
Deoxyribonuclease-1: LKIAAFNIQTFGETKMSNATLVSYIVQILSRYDIALVQEVRDSHLTAVGKLLDNLNQDAPDTYHYVVSEPLGRNSYKERYLFVYRPDQVSAVDSYYYDDGCEPCGNDTFNREPAIVRFFSRFTEVREFAIVPLHAAPGDAVAEIDALYDVYLDVQEKWGLEDVMLMGDFNAGCSYVRPSQWSSIRLWTSPTFQWLIPDSADTTATPTHCAYDRIVVAGMLLRGAVVPDSALPFNFQAAYGLSDQLAQAISDHYPVEVMLK
kidney Cy5.5 fluorescence of DNase I KO mice after subcapsular DNase I (WT and DNase I KO mice): Cy5.5 fluorescence comparable to WT mice
